*1 amine or outer side, *2 acyl side, *3 side chain or, on linkers, in order; H or OH if unused. Where a SMILES comes first, the peptide text is derived from it. [ ]: non-standard residue; d: D form. The star is where a group is joined. X1 = CO[C@@H](C1CCCN1[*:1])[C@@H](C)C(=O)[*:2]; Dil = CC[C@H](C)[C@H](NC)[C@@H](CC(=O)O)OC; PABC = O=C(OCc1ccc(N[*:1])cc1)[*:2]; Phosphonoacetyl = O=C(CP(=O)(O)O)*; X2 = C[C@@H](N*)[C@@H](O)c1ccccc1; NMeV = CN[C@H](C(=O)O)C(C)C
System: A2058 melanoma cells subcutaneously implanted in nude NMRI mice
Assay: In vivo activity on A2058 melanoma xenograft
Set-up: species or system mouse
Protocol: The in vivo efficacy of PhAc-ALLP-PABC-MMAE was tested in a mouse melanoma model. A2058 melanoma cells were subcutaneously (SC) implanted in nude NMRI mice. In total, 36 adult (9-10 weeks old) nude female NMRI mice (Janvier, France) were subjected to SC tumor cell grafting in the right flank. In total, 3×10^6 A2058 cells resuspended in PBS plus Matrigel (1:1) were injected in 200 uL final volume. As soon as the tumors were palpable and reached the volume of 200 mm3 the treatment was started. At day zero, mice were randomly divided into 4 groups, based on the tumor volume, in order to have the following experimental sub-cohorts: • control group receiving the vehicle (PBS pH7.2) with a dose of 5 ml/kg, intravenously (iv), once per week (QW); • PhAc-ALLP-PABC-MMAE (2 mg/kg iv, QW); • PhAc-ALLP-PABC-MMAE (4 mg/kg iv, QW); • MMAE (0.9 mg/kg iv, QW).
Treatments were performed once per week for a total of four tail vein administrations/injections (on days 1, 7, 14 and 21). Two extra weeks of observation followed the active treatment phase. During the experiment, tumor volume was measured two times a week and was assessed three-dimensionally with a digital caliper (Mitutoyo, Illinois) using the following formula:
V=4/3π×[(d/2)^2×(D/2)], where d is the minor tumor axis and D is the major tumor axis.

CC[C@H](C)[C@@H]([C@@H](CC(=O)N1CCCC1[C@H](OC)[C@@H](C)C(=O)N[C@H](C)[C@@H](O)c1ccccc1)OC)N(C)C(=O)[C@@H](NC(=O)[C@H](C(C)C)N(C)C(=O)OCc1ccc(NC(=O)[C@@H]2CCCN2C(=O)[C@H](CC(C)C)NC(=O)[C@H](CC(C)C)NC(=O)[C@H](C)NC(=O)CP(=O)(O)O)cc1)C(C)C (some centres unmarked) [PhAc-ALLP-PABC-MMAE] (Phosphonoacetyl-ALLP[PABC][NMeV]V[Dil][X1]-X2)
Tumor volume compared to the untreated control group (2 mg/kg iv, once per week, four administrations): importantly reduced the tumor volume | Response (2 mg/kg iv, once per week, observed until day 34): Complete response | Relapse and macroscopical toxicity (2 mg/kg iv, once per week, until day 34): without any hint of relapse or macroscopical sign of toxicity | Tumor growth (higher concentration (4 mg/kg iv, once per week)): important reduction of tumor growth | Reduction of body weight (higher concentration (4 mg/kg iv, once per week), sacrificed at day 21): > 20%
